Experimental data published in ChEMBL document CHEMBL1201862, “PubChem BioAssay data set” (2004).
Active and inactive are the calls of the source.

Assays:
[1] = target: T1, Short transient receptor potential channel 4 (Mus musculus, UniProt Q9QUQ5); test: block of DAMGO-driven TRPC4 calcium entry – cell-based, HEK293 TRPC4/mu-opioid, Fluo-4 calcium, dose response (AID 434942); format: functional;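 also: potency of inhibitors blocking the TRPC4 calcium response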
T1 sequence (Q9QUQ5 whole entry): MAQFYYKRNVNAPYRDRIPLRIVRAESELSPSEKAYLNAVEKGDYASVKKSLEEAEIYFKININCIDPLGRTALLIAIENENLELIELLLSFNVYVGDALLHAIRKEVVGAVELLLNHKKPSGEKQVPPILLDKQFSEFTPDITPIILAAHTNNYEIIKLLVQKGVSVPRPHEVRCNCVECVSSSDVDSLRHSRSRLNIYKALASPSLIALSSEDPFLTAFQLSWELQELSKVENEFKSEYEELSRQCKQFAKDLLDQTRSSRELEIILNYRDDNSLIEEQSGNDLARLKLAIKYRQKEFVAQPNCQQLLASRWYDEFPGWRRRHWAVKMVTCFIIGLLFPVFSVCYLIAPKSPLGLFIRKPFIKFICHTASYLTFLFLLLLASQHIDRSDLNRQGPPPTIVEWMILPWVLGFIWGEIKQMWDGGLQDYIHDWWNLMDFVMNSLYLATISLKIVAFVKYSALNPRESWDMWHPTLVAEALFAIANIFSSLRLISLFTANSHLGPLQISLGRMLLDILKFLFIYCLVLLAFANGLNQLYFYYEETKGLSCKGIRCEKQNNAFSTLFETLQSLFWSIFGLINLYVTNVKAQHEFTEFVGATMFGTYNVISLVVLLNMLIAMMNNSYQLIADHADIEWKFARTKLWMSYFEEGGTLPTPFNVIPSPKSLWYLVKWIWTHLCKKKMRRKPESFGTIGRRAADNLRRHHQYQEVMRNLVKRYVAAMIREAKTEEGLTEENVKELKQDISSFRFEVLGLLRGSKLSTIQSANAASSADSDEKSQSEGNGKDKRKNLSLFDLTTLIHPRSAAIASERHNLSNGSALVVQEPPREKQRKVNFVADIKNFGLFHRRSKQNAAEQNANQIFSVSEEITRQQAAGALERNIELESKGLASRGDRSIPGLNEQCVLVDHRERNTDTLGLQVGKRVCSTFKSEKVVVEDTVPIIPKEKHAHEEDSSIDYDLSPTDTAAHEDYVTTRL

[2] = target: Glyceraldehyde-3-phosphate dehydrogenase (Homo sapiens, UniProt P04406)
[3] = THP-1 cell cytotoxicity, dose response, cytotoxicity control for non-replicating M. tuberculosis project (AID 489025); format: functional
[4] = test system: HEK293; test: EBV LMP1 TES2 canonical NF-kB signalling blockers – cell-based, HEK293, luciferase, cherry-pick, dose response (AID 588343); format: functional; conditions: Homo sapiens
[5] = target: T2, RNA-binding protein pos-1 (Caenorhabditis elegans, UniProt G5EF15); test: disruptors of C. elegans POS-1 RNA interaction – biochemical, fluorescence polarization, dose response (AID 1964);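 also: purified POS-1 fused to maltose binding protein made in E. coli; potency of compounds blocking POS-1 binding to fluorescent RNA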
T2 sequence (G5EF15 whole entry): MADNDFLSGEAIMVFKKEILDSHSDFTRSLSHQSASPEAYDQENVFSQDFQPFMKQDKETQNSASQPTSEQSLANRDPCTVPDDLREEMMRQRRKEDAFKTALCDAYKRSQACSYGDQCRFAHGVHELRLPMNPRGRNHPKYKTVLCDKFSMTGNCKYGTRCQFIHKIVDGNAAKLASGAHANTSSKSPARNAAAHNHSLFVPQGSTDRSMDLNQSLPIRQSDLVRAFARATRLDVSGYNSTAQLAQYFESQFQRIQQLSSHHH

[6] = target: T3, Zinc finger protein mex-5 (Caenorhabditis elegans, UniProt Q9XUB2); test: potency of MEX-5 RNA-binding blockers – biochemical, C. elegans, fluorescence polarization, dose response (AID 1960)
T3 sequence (Q9XUB2 whole entry): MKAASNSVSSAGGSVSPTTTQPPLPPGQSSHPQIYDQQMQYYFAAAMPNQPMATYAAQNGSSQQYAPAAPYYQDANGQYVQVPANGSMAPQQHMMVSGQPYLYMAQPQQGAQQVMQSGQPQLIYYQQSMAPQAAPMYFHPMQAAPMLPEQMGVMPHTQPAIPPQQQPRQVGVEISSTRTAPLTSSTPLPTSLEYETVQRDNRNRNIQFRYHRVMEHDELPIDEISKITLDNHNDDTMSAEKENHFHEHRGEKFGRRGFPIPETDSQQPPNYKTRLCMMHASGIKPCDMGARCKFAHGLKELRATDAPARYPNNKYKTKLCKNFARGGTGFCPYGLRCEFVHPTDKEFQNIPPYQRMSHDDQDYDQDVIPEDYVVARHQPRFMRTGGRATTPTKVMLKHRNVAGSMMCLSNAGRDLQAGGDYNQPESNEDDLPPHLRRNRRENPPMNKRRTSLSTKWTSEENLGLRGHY

[7] = target: Genome polyprotein (dengue virus type 2, UniProt P29990); test: flavivirus cap methylation enzyme inhibition – biochemical, confirmation dose response, primary screen (AID 588689); format: functional
[8] = NIH-3T3 fibroblast cytotoxicity, dose response, cytotoxicity control, cell-based, fluorescence, Alamar Blue, secondary assay (AID 2327); format: functional;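 also: NIH-3T3 mouse fibroblasts cultured with fluconazole at 8 µg/mL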
[9] = test system: Streptococcus sp. 'group A'; test: Streptococcus pyogenes SK(-)GAS viability under kanamycin – luminescence, BacTiterGlo, confirmation, counter-screen for streptokinase expression inhibitor project, dose response (AID 1900); format: functional, organism-based
[10] = test system: BJ; test: BJ-TERT fibroblast viability loss – cell-based, RAS-independent, luminescence, dose response (AID 1933); format: functional; conditions: Homo sapiens
[11] = target: T4, Streptokinase A (Streptococcus pyogenes serotype M1, UniProt P10520); test: viability-normalized secreted streptokinase activity reduction – plasminogen activation absorbance, OD405, dose response (AID 1914); format: functional, Streptococcus pyogenes M1 GAS;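 also: secreted streptokinase activity via plasminogen activation per viability signal from cell pellet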
T4 sequence (P10520 whole entry): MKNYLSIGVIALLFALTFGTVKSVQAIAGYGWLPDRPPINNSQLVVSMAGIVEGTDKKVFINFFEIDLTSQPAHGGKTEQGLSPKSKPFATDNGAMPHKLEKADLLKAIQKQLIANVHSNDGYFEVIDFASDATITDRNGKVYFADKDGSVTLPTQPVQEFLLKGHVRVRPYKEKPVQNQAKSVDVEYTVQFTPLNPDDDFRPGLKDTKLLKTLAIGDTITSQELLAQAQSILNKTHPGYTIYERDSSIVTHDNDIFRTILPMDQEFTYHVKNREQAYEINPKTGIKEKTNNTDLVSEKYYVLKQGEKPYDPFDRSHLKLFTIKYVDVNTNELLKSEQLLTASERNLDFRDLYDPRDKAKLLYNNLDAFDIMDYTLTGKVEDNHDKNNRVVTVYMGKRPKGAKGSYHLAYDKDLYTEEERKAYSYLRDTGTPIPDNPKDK

[12] = test system: BJ; test: cells; format: functional, cell-based; conditions: Homo sapiens
[13] = target: Large T antigen (Simian virus 40, UniProt P03070); format: functional, Betapolyomavirus macacae;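 also: Confirmatory-stage PubChem screen for compounds that inhibit SV40 T antigen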
[14] = DRD fibroblast viability loss – cell-based, non-viral oncogenic, luminescence, dose response (AID 1934); format: functional; conditions: Homo sapiens
[15] = test system: Streptococcus; test: GAS UMAA2166 growth inhibition – luminescence, BacTiterGlo, counter-screen for streptokinase expression inhibitor project, dose response (AID 1915); format: functional, organism-based;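 also: potency for reduction of bacterial viability or growth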
[16] = target: Heat shock protein HSP 90-alpha (Homo sapiens, UniProt P07900); format: functional, organism-based
[17] = test system: INS1; test: INS-1E survival protection against cytokine death – cell-based, luminescence, retest, dose response (AID 449756); format: functional; conditions: Rattus norvegicus;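 also: cell death triggered by IL-1 beta plus TNF-alpha plus IFN-gamma mixture; protective hits raise ATP signal compared with cytokine alone wells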
[18] = target: Cytochrome P450 3A4 (Homo sapiens, UniProt P08684); conditions: Potency;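 also: confirmatory qHTS run detecting inhibitors and substrates of CYP3A4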
[19] = test system: Vero; test: viability of Vero cells under compound – cytotoxicity control for flavivirus capping enzyme inhibitors (AID 588742); format: functional; conditions: Chlorocebus sabaeus
[20] = target: T5, Polyadenylate-binding protein 1 (Homo sapiens, UniProt P11940); test: MLLE binding blockers, Cy5 peptide tracer – biochemical, fluorescence polarization, Cy5-PAM2 peptide, secondary, miRNA deadenylation inhibitor project, dose response (AID 602260); format: functional; conditions: read-out: IC50_Mean
[21] = target: T5, Polyadenylate-binding protein 1; test: MLLE domain peptide-binding blockers, IC50 – biochemical, fluorescence polarization, FITC-PAM2 peptide, dose response (AID 602259); format: functional; conditions: read-out: IC50_Mean
[22] = Trypanosoma cruzi growth suppression in host cells – NIH3T3 host cells, beta-gal luminescence, confirmation (AID 2044); format: functional, cell-based;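 also: intracellular parasites grown in NIH/3T3 mouse fibroblasts as host cells; luminescent beta-galactosidase reporter signal from transgenic T. cruzi replicating inside host cells; inhibitors lower the luminescence signal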
[23] = NIH3T3 cell viability loss – ATP luminescence, mouse fibroblasts, counter-screen, dose response (AID 2010); format: functional, cell-based;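 also: cells exposed to compound for about 90 hours before reading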

Sequence of Cytochrome P450 3A4 (P08684 whole entry): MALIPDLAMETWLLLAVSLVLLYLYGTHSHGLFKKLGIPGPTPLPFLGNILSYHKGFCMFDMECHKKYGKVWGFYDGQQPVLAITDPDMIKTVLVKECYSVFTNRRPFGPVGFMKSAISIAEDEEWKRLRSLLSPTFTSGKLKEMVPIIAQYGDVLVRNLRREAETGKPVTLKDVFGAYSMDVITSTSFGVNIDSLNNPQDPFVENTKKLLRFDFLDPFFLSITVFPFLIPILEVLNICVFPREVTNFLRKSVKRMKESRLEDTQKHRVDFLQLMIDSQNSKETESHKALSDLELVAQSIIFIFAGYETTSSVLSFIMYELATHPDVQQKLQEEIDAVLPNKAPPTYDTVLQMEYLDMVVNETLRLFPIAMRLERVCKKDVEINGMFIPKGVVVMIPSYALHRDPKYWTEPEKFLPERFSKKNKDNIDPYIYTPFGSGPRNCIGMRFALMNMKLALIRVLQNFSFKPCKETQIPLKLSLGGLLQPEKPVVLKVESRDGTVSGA
Sequence of Genome polyprotein (P29990 2492-3391 limits assumed): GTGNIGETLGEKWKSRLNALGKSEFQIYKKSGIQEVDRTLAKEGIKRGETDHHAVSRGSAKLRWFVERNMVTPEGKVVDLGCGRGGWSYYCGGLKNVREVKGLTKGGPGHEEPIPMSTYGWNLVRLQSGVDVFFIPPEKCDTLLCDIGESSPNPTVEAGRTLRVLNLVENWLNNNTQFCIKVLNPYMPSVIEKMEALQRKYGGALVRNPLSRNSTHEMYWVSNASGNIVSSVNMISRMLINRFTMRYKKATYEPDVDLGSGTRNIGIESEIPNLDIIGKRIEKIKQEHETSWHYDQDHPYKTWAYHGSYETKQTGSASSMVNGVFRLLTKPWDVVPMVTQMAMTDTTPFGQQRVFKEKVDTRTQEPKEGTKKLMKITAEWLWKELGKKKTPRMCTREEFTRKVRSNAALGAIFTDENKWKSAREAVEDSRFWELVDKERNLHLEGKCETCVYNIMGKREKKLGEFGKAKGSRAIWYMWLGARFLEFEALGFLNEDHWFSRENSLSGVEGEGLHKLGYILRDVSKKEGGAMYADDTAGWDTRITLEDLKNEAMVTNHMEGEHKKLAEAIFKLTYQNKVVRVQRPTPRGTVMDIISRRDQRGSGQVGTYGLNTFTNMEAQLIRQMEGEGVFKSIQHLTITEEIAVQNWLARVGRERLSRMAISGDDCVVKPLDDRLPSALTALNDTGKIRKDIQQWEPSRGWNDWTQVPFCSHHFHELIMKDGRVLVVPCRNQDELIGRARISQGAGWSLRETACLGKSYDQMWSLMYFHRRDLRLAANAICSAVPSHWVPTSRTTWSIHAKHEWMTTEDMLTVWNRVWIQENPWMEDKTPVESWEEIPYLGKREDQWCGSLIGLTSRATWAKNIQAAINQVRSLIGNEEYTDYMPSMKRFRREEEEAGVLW
T5 sequence (P11940 whole entry, the tested form may be a part): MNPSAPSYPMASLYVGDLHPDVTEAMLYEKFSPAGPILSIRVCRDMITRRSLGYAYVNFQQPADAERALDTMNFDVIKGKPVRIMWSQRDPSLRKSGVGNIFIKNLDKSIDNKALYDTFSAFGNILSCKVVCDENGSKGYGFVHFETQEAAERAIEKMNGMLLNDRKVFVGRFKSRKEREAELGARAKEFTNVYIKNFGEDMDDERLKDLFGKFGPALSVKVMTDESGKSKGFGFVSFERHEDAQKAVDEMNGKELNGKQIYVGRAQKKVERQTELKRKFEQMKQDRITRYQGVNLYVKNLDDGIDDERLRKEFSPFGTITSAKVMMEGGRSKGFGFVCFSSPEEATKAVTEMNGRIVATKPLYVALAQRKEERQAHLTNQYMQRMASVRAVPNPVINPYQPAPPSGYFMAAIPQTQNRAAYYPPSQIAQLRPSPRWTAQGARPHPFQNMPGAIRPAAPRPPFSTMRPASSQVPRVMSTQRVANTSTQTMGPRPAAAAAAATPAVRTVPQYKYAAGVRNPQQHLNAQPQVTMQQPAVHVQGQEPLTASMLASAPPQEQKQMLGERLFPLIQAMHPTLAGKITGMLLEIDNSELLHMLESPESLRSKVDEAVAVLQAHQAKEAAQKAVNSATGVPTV
Sequence of Glyceraldehyde-3-phosphate dehydrogenase (P04406 whole entry): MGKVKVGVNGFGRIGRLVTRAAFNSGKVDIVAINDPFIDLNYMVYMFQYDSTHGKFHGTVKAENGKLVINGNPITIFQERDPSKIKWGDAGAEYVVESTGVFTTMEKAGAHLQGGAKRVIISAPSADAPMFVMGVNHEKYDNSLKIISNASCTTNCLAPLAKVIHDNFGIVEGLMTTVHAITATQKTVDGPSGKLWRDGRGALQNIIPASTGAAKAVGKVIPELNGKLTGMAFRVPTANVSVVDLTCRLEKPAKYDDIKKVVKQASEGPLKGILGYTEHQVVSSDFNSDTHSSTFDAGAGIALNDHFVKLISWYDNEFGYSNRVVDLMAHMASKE
Sequence of Large T antigen (P03070 whole entry): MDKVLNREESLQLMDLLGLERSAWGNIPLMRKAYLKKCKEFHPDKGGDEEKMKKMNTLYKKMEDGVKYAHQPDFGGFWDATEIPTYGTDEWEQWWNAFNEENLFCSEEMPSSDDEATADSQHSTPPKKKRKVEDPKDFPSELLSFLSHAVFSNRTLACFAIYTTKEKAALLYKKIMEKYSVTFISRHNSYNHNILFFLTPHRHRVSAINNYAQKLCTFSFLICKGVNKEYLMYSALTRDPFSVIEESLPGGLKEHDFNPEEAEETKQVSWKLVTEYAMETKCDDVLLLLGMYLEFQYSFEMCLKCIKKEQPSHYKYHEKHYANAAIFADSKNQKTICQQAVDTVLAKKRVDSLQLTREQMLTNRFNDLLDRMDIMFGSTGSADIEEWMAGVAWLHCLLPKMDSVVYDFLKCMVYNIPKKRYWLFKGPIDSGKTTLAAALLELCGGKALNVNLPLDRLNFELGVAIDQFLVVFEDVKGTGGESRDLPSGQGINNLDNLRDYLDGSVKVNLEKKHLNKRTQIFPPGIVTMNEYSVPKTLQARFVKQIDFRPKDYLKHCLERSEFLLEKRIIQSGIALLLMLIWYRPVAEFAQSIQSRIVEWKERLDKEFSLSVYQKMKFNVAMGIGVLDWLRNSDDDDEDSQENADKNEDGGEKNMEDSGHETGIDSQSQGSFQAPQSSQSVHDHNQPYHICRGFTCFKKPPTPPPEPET

Compound: Cc1cccn2cc(-c3c[nH]c4ccccc34)nc12
- EC50 [1]: 5.96 µM (active)

Compound: CC1CC(C)(C)NCCNC(C)CC(C)(C)NCCN1 (stereo not drawn)
- IC50 [2]: > 10 µM (inconclusive)

Compound: Cc1ccc(CNC(C)c2ccccc2)cc1 (stereo not drawn)
- EC50 [1]: 6.68 µM (active)

Compound: Cc1nc(Cl)nc(N(C)c2ccccc2)c1[N+](=O)[O-]
- CC50 [3]: 22.9 µM (active)
- EC50 [1]: 13.3 µM (active)

Compound: Cc1c(NC(=O)c2cc(-c3cccs3)nc3ccccc23)c(=O)n(-c2ccccc2)n1C
- AC50 [4]: > 350 µM (inactive)

Compound: O=C(O)c1cccc(-n2cccc2C=C2C(=O)c3ccccc3C2=O)c1
- EC50 [5]: 37 µM (active)
- EC50 [6]: 48.5 µM (active)

Compound: Cc1cccc2nc(CSc3ccc(Cl)cc3)cn12
- EC50 [1]: 4.22 µM (active)

Compound: COc1cccc(/C=C2/C(=O)NN(c3ccc(C)c(C)c3)C2=O)c1
- IC50 [7]: > 100 µM (active)

Compound: O=C(/C=C/c1cccc(Cl)c1)c1ccc([N+](=O)[O-])o1
- EC50 [8]: 4.56 µM (inconclusive)
- EC50 [9]: 3.18 µM (active)
- EC50 [10]: > 150 µM (inconclusive)
- EC50 [11]: 3.36 µM (active)
- EC50 [12]: 9.18 µM (inconclusive)
- IC50 [13]: 40.9 µM (active)
- EC50 [14]: 2.5 µM (inconclusive)
- EC50 [15]: 6.98 µM (active)
- AC50 [16]: 1.28 µM (active)
- AC50 [17]: 2.31 µM (active)

Compound: Oc1cc(Cl)c(Cl)c(Cl)c1Cl
- AC50 [16]: 2.06 µM (active)
- AC50 [18]: 12.6 µM (inconclusive)

Compound: N=c1c(S(=O)(=O)c2ccccc2)cc2c(=O)n3ccccc3nc2n1Cc1cccnc1
- EC50 [5]: 68.1 µM (inconclusive)
- EC50 [6]: 6.91 µM (inconclusive)

Compound: Brc1cc2c(cc1C1Nc3ccccc3C3C=CCC31)OCO2 (stereo not drawn)
- EC50 [5]: > 300 µM (not active)
- EC50 [9]: 7.1 µM (active)
- EC50 [6]: > 300 µM (not active)
- EC50 [11]: 2.55 µM (active)
- EC50 [15]: 25.4 µM (active)

Compound: N#Cc1c(SC(C(=O)O)c2ccccc2)nc2c(c1-c1cccs1)CCCC2 (stereo not drawn)
- IC50 [7]: 39.2 µM (active)

Compound: CCCSc1nc(N)nc(-c2cccs2)c1C#N
- EC50 [1]: 2.66 µM (active)

Compound: Cc1cc(C)c(N2C(=O)NC(=O)/C(=C\NNC(=O)c3ccncc3)C2=O)c(C)c1
- EC50 [5]: 64.7 µM (active)
- EC50 [6]: 36.6 µM (active)

Compound: COc1ccc(CN2CCCC(C(=O)c3sccc3C)C2)cc1O (stereo not drawn)
- EC50 [1]: 11.9 µM (active)

Compound: CC1(C)C[C@@H]2C(=O)CCC3O[C@@]3(C)CCC21 (stereo partly drawn)
- AC50 [18]: 12.6 µM (inconclusive)

Compound: O=C(NNS(=O)(=O)c1ccc([N+](=O)[O-])cc1)C(=O)Nc1cccc(C(=O)O)c1
- EC50 [5]: 9.52 µM (inconclusive)
- EC50 [6]: 12.3 µM (inconclusive)

Compound: NC1=NC(=O)/C(=C/c2ccc(-c3cc([N+](=O)[O-])ccc3Cl)o2)S1
- IC50 [2]: > 100 µM (not active)

Compound: Nc1c2c(nc3ccccc13)CCC2
- EC50 [1]: 4.22 µM (active)

Compound: CCCn1c(-c2ccc(F)cc2)nc2c(NCCN(CC)CC)nc(C)nc21
- AC50 [18]: 15.8 µM (inconclusive)

Compound: O=C1C(O)=CC(=C(c2ccccc2)c2ccccc2)c2ccccc21
- CC50 [19]: > 40 µM (active)
- IC50 [7]: > 100 µM (active)

Compound: CC1=CC(=O)C(Sc2ccc(C)cc2)=CC1=O
- IC50 [7]: 14.5 µM (active)
- IC50 [20]: > 66 µM (inactive)
- IC50 [21]: > 66 µM (inactive)

Compound: C/C(=N\c1ccc(Br)cc1)c1sc2ccccc2c1O
- EC50 [5]: > 300 µM (not active)
- EC50 [6]: > 300 µM (inconclusive)
- EC50 [22]: 4.08 µM (active)
- EC50 [23]: > 60 µM (not active)

Compound: Cc1cccc(/C=N/NC(=O)CNc2cccc3ccccc23)n1
- AC50 [4]: 107 µM (active)

Compound: COC1=CC(=O)C(C(=O)c2ccccc2)=CC1=O [2-BENZOYL-5-METHOXYBENZOQUINONE]
- AC50 [18]: 10 µM (inconclusive)

Compound: COc1cc(O)cc(OC)c1OC [ANTIAROL]
- AC50 [18]: 31.6 µM (inconclusive)

Compound: O=C(CC(=O)c1ccccc1)c1ccccc1 [DIBENZOYLMETHANE]
- AC50 [18]: 12.6 µM (inconclusive)
